Test results published in patent US4389412A, “Substituted cyclopropanecarboxylic acid esters and pesticidal compositions containing the same as active ingredient” (priority 1979, dated 1983).
Converted amounts (≈) assume the structure as drawn.

How the values were obtained:
[1] = test system: rice stem borers (Chilo suppressalis Walker); experiment: Mortality test with rice stem borers by topical application method; assay type: in vivo; conditions: 24 h; for mortality at 0.001 mg: read-out: Pesticidal effect, rice stem borer
Experimental: Mortality test with rice stem borers (Chilo suppressalis Walker) by topical application method
Using a microsyringe, 0.5 μl of the above solution was applied to the thoracic abdominal region of each final-instar larva of rice stem borer (Chilo suppressalis Walker). […] The test larvae were used in groups of 20 individuals each.

[2] = test system: two-spotted spider mites (Tetranychus urticae Koch); experiment: Mortality test with two-spotted spider mites by spray application method; assay type: in vivo; conditions: 48 h, 200 ppm spray, two days, read-out: Percent decrease of population (%)
Experimental: Mortality test with two-spotted spider mites (Tetranychus urticae Koch) by spray application method
To a 5% aqueous solution of acetone was added dropwise a small amount of Tween-20 (polyethylene sorbitan monolaurate) as a surfactant. […] From 30 to 50 adult two-spotted spider mites (Tetranychus urticae Koch) were released on the leaves of kidney-bean plants in the dicotyledonous stage in a pot 9 cm in diameter, followed by a spray application of the above solution. The pot was kept in a constant-temperature chamber at 26° C. and two days later the mites were examined for deaths. The percent decrease of population was then calculated.

[3] = Fish toxicity test with killifish; assay type: in vivo, Orizias latipes; conditions: water, killifish, 25±1° C., read-out: TLm (48 hrs.)
Summary of the method: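 Test compound dispensed from acetone solution into water at set concentrations; ten aerated-water killifish (~0.25 g, ~2.5 cm) held at 25±1° C. Deaths scored after 48 hours; TLm (median tolerance limit, ppm) determined.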

[4] = Fish toxicity test with carp; assay type: in vivo, Cyprinus carpio L; conditions: carp, water
Summary of the method: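 Compound in acetone with Tween-20 dispersed in 50 L aerated water at a set concentration; five carp (about 6 g, 6 cm) exposed at 21±1° C. Deaths checked after 48 h, and TLm (median tolerance limit, ppm) determined.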

[5] = test system: brown planthoppers (Nilaparvata lugens Stal); experiment: Utility Example-1: LC50 on adult brown planthoppers on dipped rice plants; assay type: in vivo; conditions: Nilaparvata lugens, 24 h, 25° C., read-out: Pesticidal activity LC50
Summary of the method: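 Rice plants 4 weeks from sowing were dipped in water-diluted 1% emulsifiable concentrate at set concentrations and air-dried. Thirty adult N. lugens were caged on each pot, held at 25 °C.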

[6] = test system: green rice leafhoppers (Nephotettix cincticeps Uhler); experiment: Utility Example-2: spray on rice plants, green rice leafhoppers; assay type: in vivo; conditions: 7 ml/pot, 24 hours
Experimental: A 30% emulsifiable concentrate of each of the cis- and trans-isomers and a 50:50 mixture of the cis- and trans-isomers of Compound (1) and Compound (2) as prepared by the procedure described in Formulation Example-1 was diluted with water to a concentration of 80 ppm as active compound. Rice plants 4 weeks after sowing in pots (each pot 6 cm in diameter, 7 seedlings) were sprayed with the above solution at the rate of 7 ml/pot and, after drying in the air, each pot was covered with a wire-mesh cage. Then, 20 female adult green rice leafhoppers (Nephotettix cincticeps Uhler) were released into the cage. The caged pots were kept in a constant-temperature chamber at 25° C. […] In all groups, the mortality values were not less than 90%.

[7] = test system: small brown planthoppers (Laodelphax striatellus Fallen); experiment: Utility Example-3: spray on rice plants, small brown planthoppers; assay type: in vivo; conditions: 7 ml/pot, 24 hours
Experimental: A 30% emulsifiable concentrate of each of the cis- and trans-isomers and a 50:50 mixture of the cis- and trans-isomers of Compound (1) and of Compound (2) as prepared by the procedure described in Formulation Example-1 was diluted with water to a concentration of 80 ppm as active compound. Rice plants 4 weeks after sowing in pots (each pot 6 cm in diameter, 7 seedlings) were sprayed with the above diluted solution at the rate of 7 ml/pot and, after drying in the air, each pot was covered with a wire-mesh cage. Then, 30 adult small brown planthoppers (Laodelphax striatellus Fallen) were released into the cage. The pots were kept in a constant-temperature chamber at 25° C. […] In all groups, the mortality was not less than 90%.

[8] = test system: green rice leafhoppers (Nephotettix cincticeps); experiment: Utility Example-6: 0.5% dust on rice seedlings, green rice leafhoppers; assay type: in vivo; conditions: 1 kg per 10 ares, 24 hours, resistant to organophosphorus and carbamate pesticides
Description: A 0.5% dust preparation of each of the cis- and trans-isomers and a 50:50 mixture of the cis- and trans-isomers of Compound (1) and of Compound (2) as prepared by the procedure described in Formulation Example-4 was applied to rice seedlings by means of a bell-jar duster at the rate of 1 kg per 10 ares. Then, 30 green rice leafhoppers (Nephotettix cincticeps) resistant to organophosphorus and carbamate pesticides were released. […] In all cases, the mortality was not less than 90%.

[9] = test system: brown planthoppers (Nilaparvata lugens); experiment: Utility Example-7: 0.5% dust on rice seedlings, brown planthoppers; assay type: in vivo; conditions: 1 kg per 10 ares, 24 hours
Description: A 0.5% dust preparation of each of the cis- and trans-isomers and a 50:50 mixture of the cis- and trans-isomers of Compound (1) and of Compound (2) as prepared by the procedure described in Formulation Example-4 was applied to rice seedlings, on which 30 adult brown planthoppers (Nilaparvata lugens) were released, by means of a bell-jar duster at the rate of 1 kg per 10 ares. […] In all cases, the mortality was not less than 90%.

[10] = test system: houseflies (Musca domestica); experiment: Mortality test with houseflies by topical application method; conditions: 24 h; for mortality at 0.001 mg: read-out: Pesticidal effect, housefly
Experimental: Mortality test with houseflies (Musca domestica) by topical application method
Each of the compounds according to this invention and the control compounds (Table 2) was accurately weighted and a 0.1% solution of each sample in acetone was prepared. Female adult houseflies (Musca domestica) resistant to organophosphorus pesticides, were anesthetized with ether and 0.5 μl or 1.0 μl of the above solution was micropipetted onto the prothoracic dorsal region of each insect. The insects were then put in a high-walled dish together with feed and the dish was covered with a wire-mesh cover and kept at a temperature of 25° C. The test insects were used in groups of 30 individuals each. After 24 hours the insects were examined for deaths and the percent mortality was calculated.

[11] = 48 hrs., 21±1° C., read-out: TLm, Carp (48 hrs.)

CC1(C)[C@@H](C=C(Cl)Cl)[C@@H]1C(=O)OCc1cccc(Oc2ccc(Cl)cc2)c1 (relative stereo) [Compound (1) trans-, 3-(4-chlorophenoxy)benzyl trans-2,2-dimethyl-3-(2,2-dichlorovinyl)cyclopropanecarboxylate]
mortality at 1 µg/larva [1]: 85% | mortality at 10 µg/larva [1]: 100% | mortality at 200 ppm [2]: 100% | LC50 at 48 h [3]: > 10 µg/mL | LC50 at 48 h [4, 11]: 4.5 µg/mL (≈ 10.6 µM) | LC50 [5]: 650 µg/mL (≈ 1530 µM) | mortality at 80 ppm [6]: ≥ 90% | mortality at 80 ppm [7]: ≥ 90% | mortality [8]: not less than 90% | mortality [9]: not less than 90% | mortality at 0.5 µg/female [10]: 100% | mortality at 1 µg/female [10]: 100%

C#CC(OC(=O)[C@@H]1[C@H](C=C(Cl)Cl)C1(C)C)c1cccc(Oc2ccc(Cl)cc2)c1 (relative stereo) [Compound (2) cis-]
mortality at 1 µg/larva [1]: 100% | mortality at 10 µg/larva [1]: 100% | mortality at 200 ppm [2]: 100% | LC50 at 48 h [3]: > 10 µg/mL | LC50 at 48 h [4, 11]: 0.83 µg/mL (≈ 1.85 µM) | LC50 [5]: 200 µg/mL (≈ 445 µM) | mortality at 80 ppm [6]: ≥ 90% | mortality at 80 ppm [7]: ≥ 90% | mortality [8]: not less than 90% | mortality [9]: not less than 90% | mortality at 0.5 µg/female [10]: 100% | mortality at 1 µg/female [10]: 100%

C#CC(OC(=O)[C@@H]1[C@@H](C=C(Cl)Cl)C1(C)C)c1cccc(Oc2ccc(Cl)cc2)c1 (relative stereo) [Compound (2) trans-]
mortality at 1 µg/larva [1]: 100% | mortality at 10 µg/larva [1]: 100% | mortality at 200 ppm [2]: 100% | LC50 at 48 h [3]: > 10 µg/mL | LC50 at 48 h [4, 11]: > 10 µg/mL | LC50 at 48 h ([4]; Table 12 and text of Utility Example-1, read-out: Toxicity to fish TLm): > 10 µg/mL | LC50 [5]: 180 µg/mL (≈ 400 µM) | mortality at 80 ppm [6]: ≥ 90% | mortality at 80 ppm [7]: ≥ 90% | mortality [8]: not less than 90% | mortality [9]: not less than 90% | mortality at 0.5 µg/female [10]: 100% | mortality at 1 µg/female [10]: 100%

CC1(C)C(C=C(Cl)Cl)C1C(=O)OCc1cccc(Oc2ccccc2)c1 (stereo not drawn) [Compound (B), Permethrin]
mortality at 1 µg/larva [1]: 95% | mortality at 10 µg/larva [1]: 100% | mortality at 0.001 mg [1]: 95% | mortality at 200 ppm [2]: 100% | LC50 at 48 h [3]: 0.04 µg/mL (≈ 0.102 µM) | LC50 at 48 h [4, 11]: 0.015 µg/mL (≈ 0.0383 µM) | LC50 [5]: 700 µg/mL (≈ 1790 µM) | mortality at 0.5 µg/female [10]: 100% | mortality at 1 µg/female [10]: 100% | mortality at 0.001 mg [10]: 100%

C#CC(OC(=O)C1C(C=C(Cl)Cl)C1(C)C)c1cccc(Oc2ccc(Cl)cc2)c1 (stereo not drawn) [Compound (2) cis-/trans- = 50:50, 3-(4-chlorophenoxy)-α-ethynylbenzyl 2,2-dimethyl-3-(2,2-dichlorovinyl)cyclopropanecarboxylate]
mortality at 1 µg/larva [1]: 100% | mortality at 10 µg/larva [1]: 100% | mortality at 0.001 mg [1]: 100% | mortality at 200 ppm [2]: 100% | LC50 at 48 h [3]: > 10 µg/mL | LC50 [5]: 190 µg/mL (≈ 422 µM) | mortality at 80 ppm [6]: ≥ 90% | mortality at 80 ppm [7]: ≥ 90% | mortality [8]: not less than 90% | mortality [9]: not less than 90% | mortality at 0.5 µg/female [10]: 100% | mortality at 1 µg/female [10]: 100% | mortality at 0.001 mg [10]: 100%
